Data taken from ChEMBL document CHEMBL1127703, “Structural requirements for respiratory inhibition by rotenoids; is an intact B/C ring system essential?” (Bioorg Med Chem Lett, 1994).

Test: Tested for the ability to block NADH dehydrogenase in a preparation of submitochondrial particles obtained from blow fly flight muscle
Format: tissue-based, Calliphoridae, Muscle tissue

Row | -Log IC50 | SMILES
1 | 7.9 | COc1ccc(CC2NCCc3cc4c(cc32)C[C@H](C(C)CSc2ccccc2)O4)cc1OC (some centres not stated)
2 | 6.76 | C=C(C)[C@H]1Cc2cc3c(cc2O1)CCNC3Cc1ccc(OC)c(OC)c1 (some centres not stated)

The next lines start with the compound.

Row | SMILES | -Log IC50
3 | C=C(C)[C@H]1Cc2cc(C(=O)n3c(C)nc4ccccc43)ccc2O1 | 7.82
4 | C=C(C)[C@H]1Cc2c(ccc(Cn3c(C)nc4ccccc43)c2OC)O1 | 6.82
5 | C=C(C)[C@H]1Cc2c(ccc(C(=O)n3c(C)nc4ccccc43)c2OC)O1 | 6.6
6 | C=C(C)[C@H]1Cc2cc(Cn3c(C)nc4ccccc43)ccc2O1 | 7.3
7 | C=C(C)[C@H]1Cc2c(ccc3c2O[C@@H]2COc4cc(OC)c(OC)cc4[C@@H]2C3=O)O1 [ROTENONE] | 8.7
